Legend:
[1] = Light generation from compounds following incubation with hydrogen peroxide in different pH solutions (D-cysteine conversion, LDR); assay type: biochemical; settings: for Signal to Background Ratios: signal with peroxide to background no peroxide
Experimental: In this experiment, various compounds were tested for their ability to detect hydrogen peroxide in different pH solutions. Several compounds are shown to give much better signal strength and signal to background ratios than PBI 3048 (Example 23). 4 mg/ml solutions of compounds PBI 4480, 4481, 4452, 4470, 4472, 3048 (FIGS. 1 and 2) were made by dissolving them in DMSO (Fluka 41641). 30 μl of the compound solutions was diluted to 1.5 ml with Nanopure water, and 50 μl aliquots added as follows into a white, 96-well luminometer plate: PBI 4481, row A1-12; PBI 4480, row B1-12; PBI 4452, row C1-12; PBI 3048, row D1-12; PBI 4472, row E1-12 and PBI 4470, row F1-12.
25 μl of 200 mM TRIS buffer, pH 7.6 was added to wells A1-F4, 25 μl of 200 mM TRIS buffer, pH 8.8 was added to wells A5-F8, and 25 μl of 200 mM Tris buffer, pH 10.4 was added […].
30% hydrogen peroxide (Sigma H 1009-5 ml) was diluted to 40 μM in Nanopure water, and 25 μl added to columns 3, 4, 7, 8, 11 and 12 of the plate. 25 μl water was added to columns 1, 2, 5, 6, 9, and 10 of the plate, and the plate incubated at room temperature for 60 minutes.
A conversion solution was made by mixing 100 μl of 100 mM D-cysteine, 1 ml Tris Buffer pH 8.8 and 8.9 ml nanopure water. After mixing, 80 μl of the solution was added to wells A1-F12 of a new luminometer plate.
After incubation, 20 μl of sample from wells A1-F12 of the first plate was transferred to the same well in the new luminometer plate. The new plate was incubated at room temperature for 5 minutes, 100 μl of LDR (Example 23) was added to wells A1-F12, and bioluminescence detected on a Glo Max® luminometer (Promega).
The RLUs for the duplicate wells were averaged. The averages for the wells containing hydrogen peroxide were compared to the wells without hydrogen peroxide at the same pH (Table 2). BZT is used to designate benzothiazole derivatives of the compounds.
The Signal to Background (S/B) ratio is used to compare assay reagents with very difference signal strengths. An assay with a higher S/B ratio is often considered a better assay than one with a smaller S/B ratio (with all other factors being relatively equal).

[2] = Signal strength differences due to reaction pH and buffer composition (hydrogen peroxide, D-cysteine conversion, LDR); assay type: biochemical; settings: for Net Average Signals at 15 Minutes / Net Average Signals at 60 Minutes / Net Average Signals at 105 Minutes: 100 μl of 10 μM H2O2 added
Experimental: A 30 μl sample of 4 mg/ml PBI 4458 in DMSO was diluted to 1.5 ml with Nanopure water, and 50 μl added to wells A1-12 and E1-12 of a microtiter plate. A 30 μl sample of 4 mg/ml PBI 4472 in DMSO was diluted to 1.5 ml with Nanopure, and 50 μl added to wells B1-12 and F1-12 of the plate. A 30 μl sample of 4 mg/ml PBI 4480 in DMSO was diluted to 1.5 ml with Nanopure water, and 50 μl added to wells C1-12 and G1-12 of the plate. A 30 μl sample of 4 mg/ml PBI 4481 in DMSO was diluted to 1.5 ml with Nanopure water, and 50 μl added to wells D1-12 and H1-12 of the plate. To the plate, a 50 μl sample of 200 mM KHPO4, pH 7.4 was added to wells A1-D4; 50 μl 200 mM Tris buffer, pH 7.4 was added to wells A5-D8; 50 μl 250 mM HEPES buffer, pH 7.5 was added to wells A9-D12; 50 μl 200 mM KHPO4 buffer, pH 9.2 was added to wells E1-H4; 50 μl 250 mM Tris buffer, pH 10.4 was added to wells E5-H8; and 50 μl 100 mM CAPS buffer, pH 10.4 was added to wells E9-H12.
A sample of hydrogen peroxide (30%, Sigma, H1009-5 ml) was diluted to 10 μM with Nanopure water, and 100 μl added to columns 3, 4, 7, 8, 11, 12 wells A-H of the plate. 100 μl Nanopure water was added to columns 1, 2, 5, 6, 9 and 10 of the plate. The plate was incubated at room temperature for 15 minutes.
A conversion solution was made by mixing 5 ml of 1 M HEPES buffer, pH 7.5, 4.9 ml of Nanopure water and 100 μl of 100 mM D-cysteine (in Nanopure water), and […] added to all wells of a luminometer plate.
After incubation, 25 μl of sample from all wells in the plate was transferred and mixed into the corresponding wells in the luminometer plate, incubated 2-3 minutes at room temperature, and 50 μl LDR (Example 23) added. The luminometer plate was incubated for 15 minutes at room temperature, and bioluminescence detected on a GloMax® luminometer.
Additional samples were taken at 60 and 105 minutes and added to a fresh luminometer plates containing 25 μl of conversion solution in all wells. The plates were then incubated for 15 minutes at room temperature, and bioluminescence detected as previously described.

[3] = pH 7.6 TRIS buffer, No H2O2, 60 minutes
[4] = pH 7.6 TRIS buffer, With H2O2 (25 μl of 40 μM added), 60 minutes
[5] = pH 8.8 TRIS buffer, No H2O2, 60 minutes
[6] = pH 8.8 TRIS buffer, With H2O2 (25 μl of 40 μM added), 60 minutes
[7] = pH 10.4 Tris buffer, No H2O2, 60 minutes
[8] = pH 10.4 Tris buffer, With H2O2 (25 μl of 40 μM added), 60 minutes

## CC1(C)OB(c2ccc(COc3ccc4nc(C#N)sc4c3)cc2)OC1(C)C [PBI 4472, 6-((4-(4,4,5,5-tetramethyl-1,3,2-dioxaborolan-2-yl)benzyl)oxy)benzo-[d]thiazole-2-carbonitrile]
[1]; pH 7.6
  Signal to Background Ratios: 18.0
[1]; [3]
  averaged RLUs (bioluminescence): 102,925 RLU
[1]; [4]
  averaged RLUs (bioluminescence): 1,854,434 RLU
[1]; pH 8.8
  Signal to Background Ratios: 31.6
[1]; [5]
  averaged RLUs (bioluminescence): 163,710 RLU
[1]; [6]
  averaged RLUs (bioluminescence): 5,175,361 RLU
[1]; pH 10.4
  Signal to Background Ratios: 24.1
[1]; [7]
  averaged RLUs (bioluminescence): 337,921 RLU
[1]; [8]
  averaged RLUs (bioluminescence): 8,159,216 RLU
[2]; CAPS pH 10.4, 15 minutes
  Signal to Background Ratios at 15 Minutes: 17.0
  Net Average Signals at 15 Minutes: 3,154,440 RLU
[2]; CAPS pH 10.4, 60 minutes
  Signal to Background Ratios at 60 Minutes: 15.4
  Net Average Signals at 60 Minutes: 5,425,701 RLU
[2]; CAPS pH 10.4, 105 minutes
  Signal to Background Ratios at 105 Minutes: 11.3
  Net Average Signals at 105 Minutes: 7,554,957 RLU
[2]; HEPES pH 7.5, 15 minutes
  Signal to Background Ratios at 15 Minutes: 3.9
  Net Average Signals at 15 Minutes: 58,399 RLU
[2]; HEPES pH 7.5, 60 minutes
  Signal to Background Ratios at 60 Minutes: 8.0
  Net Average Signals at 60 Minutes: 159,982 RLU
[2]; HEPES pH 7.5, 105 minutes
  Signal to Background Ratios at 105 Minutes: 8.2
  Net Average Signals at 105 Minutes: 259,725 RLU
[2]; KPO4 Ph 7.4, 15 minutes
  Net Average Signals at 15 Minutes: 43,867 RLU
[2]; KPO4 pH 7.4, 15 minutes
  Signal to Background Ratios at 15 Minutes: 3.1
[2]; KPO4 pH 7.4, 60 minutes
  Signal to Background Ratios at 60 Minutes: 4.9
  Net Average Signals at 60 Minutes: 102,614 RLU
[2]; KPO4 pH 7.4, 105 minutes
  Signal to Background Ratios at 105 Minutes: 5.3
  Net Average Signals at 105 Minutes: 168,787 RLU
[2]; KPO4 pH 9.2, 15 minutes
  Signal to Background Ratios at 15 Minutes: 11.0
  Net Average Signals at 15 Minutes: 400,087 RLU
[2]; KPO4 pH 9.2, 60 minutes
  Signal to Background Ratios at 60 Minutes: 14.7
  Net Average Signals at 60 Minutes: 781,296 RLU
[2]; KPO4 pH 9.2, 105 minutes
  Signal to Background Ratios at 105 Minutes: 14.6
  Net Average Signals at 105 Minutes: 1,380,626 RLU
[2]; TRIS pH 10.4, 15 minutes
  Signal to Background Ratios at 15 Minutes: 32.9
  Net Average Signals at 15 Minutes: 1,530,303 RLU
[2]; TRIS pH 10.4, 60 minutes
  Signal to Background Ratios at 60 Minutes: 34.2
  Net Average Signals at 60 Minutes: 3,777,236 RLU
[2]; TRIS pH 10.4, 105 minutes
  Signal to Background Ratios at 105 Minutes: 26.5
  Net Average Signals at 105 Minutes: 6,279,007 RLU
[2]; Tris pH 7.4, 15 minutes
  Signal to Background Ratios at 15 Minutes: 6.6
  Net Average Signals at 15 Minutes: 121,480 RLU
[2]; Tris pH 7.4, 60 minutes
  Signal to Background Ratios at 60 Minutes: 13.2
  Net Average Signals at 60 Minutes: 371,397 RLU
[2]; Tris pH 7.4, 105 minutes
  Signal to Background Ratios at 105 Minutes: 13.6
  Net Average Signals at 105 Minutes: 658,967 RLU

## CC1(C)OB(c2ccc(COc3ccc4nc(C#N)sc4c3)cc2F)OC1(C)C [PBI 4481, 6-((3-fluoro-4-(4,4,5,5-tetramethyl-1,3,2-dioxaborolan-2-yl)benzyl)oxy)benzo[d]thiazole-2-carbonitrile]
[1]; pH 7.6
  Signal to Background Ratios: 7.0
[1]; [3]
  averaged RLUs (bioluminescence): 124,246 RLU
[1]; [4]
  averaged RLUs (bioluminescence): 873,626 RLU
[1]; pH 8.8
  Signal to Background Ratios: 21.1
[1]; [5]
  averaged RLUs (bioluminescence): 135,530 RLU
[1]; [6]
  averaged RLUs (bioluminescence): 2,854,279 RLU
[1]; pH 10.4
  Signal to Background Ratios: 32.4
[1]; [7]
  averaged RLUs (bioluminescence): 230,459 RLU
[1]; [8]
  averaged RLUs (bioluminescence): 7,474,603 RLU
[2]; CAPS pH 10.4, 15 minutes
  Signal to Background Ratios at 15 Minutes: 15.0
  Net Average Signals at 15 Minutes: 3,139,869 RLU
[2]; CAPS pH 10.4, 60 minutes
  Signal to Background Ratios at 60 Minutes: 15.6
  Net Average Signals at 60 Minutes: 4,514,998 RLU
[2]; CAPS pH 10.4, 105 minutes
  Signal to Background Ratios at 105 Minutes: 12.3
  Net Average Signals at 105 Minutes: 6,646,007 RLU
[2]; HEPES pH 7.5, 15 minutes
  Signal to Background Ratios at 15 Minutes: 1.4
  Net Average Signals at 15 Minutes: 15,697 RLU
[2]; HEPES pH 7.5, 60 minutes
  Signal to Background Ratios at 60 Minutes: 2.5
  Net Average Signals at 60 Minutes: 56,121 RLU
[2]; HEPES pH 7.5, 105 minutes
  Signal to Background Ratios at 105 Minutes: 3.0
  Net Average Signals at 105 Minutes: 111,757 RLU
[2]; KPO4 Ph 7.4, 15 minutes
  Net Average Signals at 15 Minutes: 16,032 RLU
[2]; KPO4 pH 7.4, 15 minutes
  Signal to Background Ratios at 15 Minutes: 1.5
[2]; KPO4 pH 7.4, 60 minutes
  Signal to Background Ratios at 60 Minutes: 2.2
  Net Average Signals at 60 Minutes: 48,355 RLU
[2]; KPO4 pH 7.4, 105 minutes
  Signal to Background Ratios at 105 Minutes: 2.7
  Net Average Signals at 105 Minutes: 108,403 RLU
[2]; KPO4 pH 9.2, 15 minutes
  Signal to Background Ratios at 15 Minutes: 4.7
  Net Average Signals at 15 Minutes: 189,573 RLU
[2]; KPO4 pH 9.2, 60 minutes
  Signal to Background Ratios at 60 Minutes: 8.3
  Net Average Signals at 60 Minutes: 494,981 RLU
[2]; KPO4 pH 9.2, 105 minutes
  Signal to Background Ratios at 105 Minutes: 7.7
  Net Average Signals at 105 Minutes: 974,784 RLU
[2]; TRIS pH 10.4, 15 minutes
  Signal to Background Ratios at 15 Minutes: 23.2
  Net Average Signals at 15 Minutes: 1,467,615 RLU
[2]; TRIS pH 10.4, 60 minutes
  Signal to Background Ratios at 60 Minutes: 27.8
  Net Average Signals at 60 Minutes: 2,780,433 RLU
[2]; TRIS pH 10.4, 105 minutes
  Signal to Background Ratios at 105 Minutes: 24.2
  Net Average Signals at 105 Minutes: 4,441,956 RLU
[2]; Tris pH 7.4, 15 minutes
  Signal to Background Ratios at 15 Minutes: 1.9
  Net Average Signals at 15 Minutes: 29,382 RLU
[2]; Tris pH 7.4, 60 minutes
  Signal to Background Ratios at 60 Minutes: 3.5
  Net Average Signals at 60 Minutes: 111,440 RLU
[2]; Tris pH 7.4, 105 minutes
  Signal to Background Ratios at 105 Minutes: 4.4
  Net Average Signals at 105 Minutes: 245,489 RLU
